Measured values as given in paper PMC2888578, “Conformational Determinants of Phosphotyrosine Peptides Complexed with the Src SH2 Domain” (PLoS ONE, 2010).
Like-named read-outs stand apart in the source and are kept apart here. Where a SMILES comes first, the peptide text is derived from it. Where no end group is shown, it is not given here. [ ]: non-standard residue; d: D form. pY = N[C@@H](Cc1ccc(OP(=O)(O)O)cc1)C(=O)O

Assays:
[1] = molecular target: T1, Src SH2 domain (Homo sapiens, UniProt P12931); test: fluorescence polarization (FP) competition binding assay against fluorescent probe EPQ(pY)EEIPIYL(K-Flc); conditions: for IC50: concentration that reduces binding of fluorescein-labeled probe EPQ(pY)EEIPIYL(K-Flc) to the Src SH2 domain by 50%, 350 nM GST-Src SH2, 50 nM probe, 25°C, pH 7.3
T1 construct: 350 nM of GST-Src SH2 domain fusion protein
Procedure: The relative binding affinity of phosphopeptides to the Src SH2 domain was tested by competition against a fluorescent probe using a fluorescence polarization (FP) binding assay, [17], [18]. FP was measured at 25°C in a disposable glass tube, using a Beacon 2000 luminescence spectrometer equipped with an FP apparatus. The excitation and emission wavelengths were set at 485 and 535 nm, respectively. The fluorescent probe was the fluorescein (Flc)-labeled phosphopeptide EPQ(pY)EEIPIYL(K-Flc). For the competition assay, final concentrations of 350 nM of GST-Src SH2 domain fusion protein, 50 nM fluorescent probe, HEPES buffer (20 mM, pH 7.3, 100 mM NaCl, 2 mM DTT, 0.1% BSA) and various concentrations (0–100 µM) of each competitor peptide were used. A blank control (with the Src SH2 domain but without a peptide) and a background control (without both the Src SH2 domain and the peptide) were used. The inhibition percentage IP of fluorescent probe binding to the Src SH2 domain by the sample was calculated by the following equation: [drawing 1] where FP0 is the fluorescent polarization value of the blank control, FP is the fluorescent polarization value of the sample (peptide), and FPb is the fluorescent polarization value of the background control. The inhibition percentages of the various concentrations of the assayed peptides were plotted, and the IC50 value (the concentration that inhibits the binding of the fluorescent probe to the Src SH2 domain by 50%) was calculated.

[2] = molecular target: Src SH2; conditions: cited from earlier work

T1 sequence (P12931 151-248 limits assumed): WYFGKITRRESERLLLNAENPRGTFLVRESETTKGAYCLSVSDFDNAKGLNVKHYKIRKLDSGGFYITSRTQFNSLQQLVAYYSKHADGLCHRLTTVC

Compound | IC50 [1] [nM] | further results
N[C@@H](Cc1ccc(OP(=O)(O)O)cc1)C(=O)N[C@@H](CCC(=O)O)C(=O)N[C@@H](CCC(=O)O)C(=O)NCC(=O)O [pYEEG] (H-[pY]EEG-OH) | 5700 ± 2100 | 
CC[C@H](C)[C@H](NC(=O)[C@H](CC(N)=O)NC(=O)[C@H](CCC(=O)O)NC(=O)[C@@H](N)Cc1ccc(OP(=O)(O)O)cc1)C(=O)O [pYENI, pTyr-Glu-Asn-Ile] (H-[pY]ENI-OH) | 1000 ± 100 | 
CC(C)[C@H](NC(=O)[C@H](CC(N)=O)NC(=O)[C@H](CCC(=O)O)NC(=O)[C@@H](N)Cc1ccc(OP(=O)(O)O)cc1)C(=O)O [pYENV] (H-[pY]ENV-OH) | 2100 ± 700 | 
CC(C)[C@H](NC(=O)[C@H](CC(N)=O)NC(=O)[C@@H](NC(=O)[C@@H](N)Cc1ccc(OP(=O)(O)O)cc1)C(C)C)C(=O)O [pYVNV, pTyr-Val-Asn-Val-Ala] |  | est. ΔG ([1]; estimated binding free energy from FP IC50): -6.96 kcal/mol
pTyr-Glu-Glu-Ile-Pro ([pY]EEIP) |  | Kd ([2]; complex of crystal structure 1SPS, read-out: affinity of the high-affinity complex with Src SH2): 80 to 200 nM
pTyr-Val-Pro-Met-Leu ([pY]VPML) [phosphopeptide of the less specific Src SH2 crystal structure 1SHA] |  | Kd ([2]; complex of crystal structure 1SHA, read-out: Kd): 5500 nM
